# In patent US6706267B1, “Glucosamine and egg for reducing inflammation” (Arkion Life Sciences LLC, priority 1999, dated 2004):
# Marks after values point to notes of the source that are not given here.
# Legend:
# Format in all cases: in vivo
# [1] = system: established rat adjuvant arthritis; assay: Rat established adjuvant arthritis model: paw edema; details: for % Chg (paw edema vs Control Adjuvant) / Day 14-Mean Paw Edema (ml ± SE) / Day 22-Mean Paw Edema (ml ± SE) / Day 30-Mean Paw Edema (ml ± SE): oral, rat
# Excerpt: (§1) To assess the synergistic antiarthritic effect of Glucosamine hydrochloride and the DCV hyperimmune egg in the established rat adjuvant arthritis, a chronic animal model of inflammation.
# [2] = system: established rat adjuvant arthritis; assay: Rat adjuvant arthritis model: histomorphologic observations, tibiotarsal joint; design: scale not given here; details: for Ankylosis (score) / Erosion, Cartliage (score) / Hyperostosis (score) / Inflammation, periarticular (score) / Osteolysis (score) / Pannus, Cartliage (score): Tibiotarsal Joint (H&E); for Erosion, Cartilage (score): Tibiotarsal Joint (PAS)
# Excerpt: as §1
# [3] = system: plasma fibrinogen; assay: Rat established adjuvant arthritis model: plasma fibrinogen levels
# Excerpt: as §1
smiles,measurement,setting,value
"Cl.N[C@H]1C(O)O[C@H](CO)[C@@H](O)[C@@H]1O (some centres unmarked) [GLU-250, Glucosamine hydrochloride]",% Chg (paw edema vs Control Adjuvant),[1]; Day 14,−15%
same,Day 14-Mean Paw Edema (ml ± SE),[1]; Day 14,"1.1 ± 0.3, n = 7 ml"
same,% Chg (paw edema vs Control Adjuvant),[1]; Day 22,−16%
same,Day 22-Mean Paw Edema (ml ± SE),[1]; Day 22,"1.6 ± 0.3, n = 7 ml"
same,% Chg (paw edema vs Control Adjuvant),[1]; Day 30,+48* %
same,Day 30-Mean Paw Edema (ml ± SE),[1]; Day 30,"3.1 ± 0.2, n = 5 ml"
same,"effect on paw edema, in words","[1]; day 30, severe polyarthritis",ineffectiveness
same,"effect on paw edema, in words",[1]; days 14 and 22,inhibitory effect
same,Ankylosis (score),[2]; Day 22,3.5
same,"Erosion, Cartliage (score)",[2]; Day 22,2.0
same,Hyperostosis (score),[2]; Day 22,3.0
same,"Inflammation, periarticular (score)",[2]; Day 22,3.5
same,Osteolysis (score),[2]; Day 22,1.5
same,"Pannus, Cartliage (score)",[2]; Day 22,2.0
same,Ankylosis (score),[2]; Day 30,4.0
same,"Erosion, Cartliage (score)",[2]; Day 30,4.0
same,Hyperostosis (score),[2]; Day 30,3.5
same,"Inflammation, periarticular (score)",[2]; Day 30,4.0
same,Osteolysis (score),[2]; Day 30,3.5
same,"Pannus, Cartliage (score)",[2]; Day 30,4.0
same,"Erosion, Cartilage (score)",[2]; Day 22,2.0
same,"Erosion, Cartilage (score)",[2]; Day 30,4.0
same,% Δ from ctrl (plasma fibrinogen),"[3]; Day 16, oral",+18%
same,Mean Plasma Fibrinogen Levels (mg/dl ± SE),"[3]; Day 16, oral",735 ± 44 mg/dL
same,% Δ from ctrl (plasma fibrinogen),"[3]; Day 23, oral",−2%
same,Mean Plasma Fibrinogen Levels (mg/dl ± SE),"[3]; Day 23, oral",803 ± 39 mg/dL
same,% Δ from ctrl (plasma fibrinogen),"[3]; Day 30, oral",−28%
same,Mean Plasma Fibrinogen Levels (mg/dl ± SE),"[3]; Day 30, oral",487 ± 112 mg/dL
"COc1ccc2c(c1)c(CC(=O)O)c(C)n2C(=O)c1ccc(Cl)cc1 [Indo, Indomethacin]",% Chg (paw edema vs Control Adjuvant),[1]; Day 14,−8%
same,Day 14-Mean Paw Edema (ml ± SE),[1]; Day 14,"1.2 ± 0.4, n = 6 ml"
same,% Chg (paw edema vs Control Adjuvant),[1]; Day 22,−37%
same,Day 22-Mean Paw Edema (ml ± SE),[1]; Day 22,"1.2 ± 0.1, n = 6 ml"
same,% Chg (paw edema vs Control Adjuvant),[1]; Day 30,−86* %
same,Day 30-Mean Paw Edema (ml ± SE),[1]; Day 30,"0.3 ± 0.1, n = 5 ml"
same,Ankylosis (score),[2]; Day 22,1.5/1.5
same,"Erosion, Cartliage (score)",[2]; Day 22,1.5
same,Hyperostosis (score),[2]; Day 22,3.0
same,"Inflammation, periarticular (score)",[2]; Day 22,3.5/3.5
same,Osteolysis (score),[2]; Day 22,2.5
same,"Pannus, Cartliage (score)",[2]; Day 22,1.5
same,Ankylosis (score),[2]; Day 30,1.5/1.5
same,"Erosion, Cartliage (score)",[2]; Day 30,2.5
same,Hyperostosis (score),[2]; Day 30,2.0
same,"Inflammation, periarticular (score)",[2]; Day 30,3.5/3.5
same,Osteolysis (score),[2]; Day 30,1.0
same,"Pannus, Cartliage (score)",[2]; Day 30,2.5
same,"Erosion, Cartilage (score)",[2]; Day 22,1.5
same,"Erosion, Cartilage (score)",[2]; Day 30,2.5
same,% Δ from ctrl (plasma fibrinogen),"[3]; Day 23, oral",−28%
same,Mean Plasma Fibrinogen Levels (mg/dl ± SE),"[3]; Day 23, oral",617 ± 72 mg/dL
same,% Δ from ctrl (plasma fibrinogen),"[3]; Day 30, oral",−46* %
same,Mean Plasma Fibrinogen Levels (mg/dl ± SE),"[3]; Day 30, oral",366 ± 48 mg/dL
same,percent inhibition of fibrinogen levels,[3]; day 30,46%
